Data from the NIST ThermoML archive (doi:10.1016/j.jct.2005.09.004).

Assays:
[1] = refractive index (Na D-line) (dimensionless); φn = volume fraction of the nth substance listed; conditions: 101 kPa, Liquid, Standard Abbe refractometry
[2] = xn = mol fraction of the nth substance listed; conditions: for surface tension liquid-gas: Drop volume; for mass density: 101 kPa, Liquid

C1CCCC1 [cyclopentane] + C1COCCO1
Conditions | mass density [kg/m3] | refractive index | surface tension liquid-gas [mN/m]
[1], 283.15 K, φ2 = 0.0438 | – | 1.41192 | –
[1], 283.15 K, φ2 = 0.087 | – | 1.41201 | –
[1], 283.15 K, φ2 = 0.1787 | – | 1.41266 | –
[1], 283.15 K, φ2 = 0.2781 | – | 1.41381 | –
[1], 283.15 K, φ2 = 0.3694 | – | 1.41511 | –
[1], 283.15 K, φ2 = 0.4754 | – | 1.41686 | –
[1], 283.15 K, φ2 = 0.5928 | – | 1.41854 | –
[1], 283.15 K, φ2 = 0.7068 | – | 1.4208 | –
[1], 283.15 K, φ2 = 0.7975 | – | 1.42271 | –
[1], 283.15 K, φ2 = 0.9083 | – | 1.42517 | –
[1], 283.15 K, φ2 = 0.9568 | – | 1.42621 | –
[1], 298.15 K, φ2 = 0.0401 | – | 1.40332 | –
[1], 298.15 K, φ2 = 0.0979 | – | 1.40358 | –
[1], 298.15 K, φ2 = 0.1873 | – | 1.4043 | –
[1], 298.15 K, φ2 = 0.2827 | – | 1.40556 | –
[1], 298.15 K, φ2 = 0.3727 | – | 1.40698 | –
[1], 298.15 K, φ2 = 0.4709 | – | 1.40874 | –
[1], 298.15 K, φ2 = 0.5703 | – | 1.41064 | –
[1], 298.15 K, φ2 = 0.6847 | – | 1.41303 | –
[1], 298.15 K, φ2 = 0.785 | – | 1.41517 | –
[1], 298.15 K, φ2 = 0.8986 | – | 1.41772 | –
[1], 298.15 K, φ2 = 0.9436 | – | 1.41867 | –
[1], 313.15 K, φ2 = 0.0434 | – | 1.39455 | –
[1], 313.15 K, φ2 = 0.0858 | – | 1.39477 | –
[1], 313.15 K, φ2 = 0.181 | – | 1.3956 | –
[1], 313.15 K, φ2 = 0.2747 | – | 1.39691 | –
[1], 313.15 K, φ2 = 0.3702 | – | 1.3985 | –
[1], 313.15 K, φ2 = 0.472 | – | 1.40052 | –
[1], 313.15 K, φ2 = 0.5688 | – | 1.40259 | –
[1], 313.15 K, φ2 = 0.6767 | – | 1.40502 | –
[1], 313.15 K, φ2 = 0.7759 | – | 1.40729 | –
[1], 313.15 K, φ2 = 0.8977 | – | 1.41018 | –
[1], 313.15 K, φ2 = 0.933 | – | 1.41105 | –
[2], 283.15 K, x2 = 0.0516 | 766.94 | – | –
[2], 283.15 K, x2 = 0.0615 | – | – | 24.4
[2], 283.15 K, x2 = 0.095 | 777.38 | – | –
[2], 283.15 K, x2 = 0.121 | – | – | 24.58
[2], 283.15 K, x2 = 0.1824 | – | – | 24.76
[2], 283.15 K, x2 = 0.1944 | 802.55 | – | –
[2], 283.15 K, x2 = 0.2656 | – | – | 25.04
[2], 283.15 K, x2 = 0.2987 | 830.28 | – | –
[2], 283.15 K, x2 = 0.3973 | 857.59 | – | –
[2], 283.15 K, x2 = 0.4058 | – | – | 25.63
[2], 283.15 K, x2 = 0.499 | 886.71 | – | –
[2], 283.15 K, x2 = 0.5313 | – | – | 26.4
[2], 283.15 K, x2 = 0.6003 | 916.64 | – | –
[2], 283.15 K, x2 = 0.6376 | – | – | 27.35
[2], 283.15 K, x2 = 0.7063 | 949.05 | – | –
[2], 283.15 K, x2 = 0.7264 | – | – | 28.44
[2], 283.15 K, x2 = 0.806 | – | – | 29.74
[2], 283.15 K, x2 = 0.8072 | 980.93 | – | –
[2], 283.15 K, x2 = 0.902 | – | – | 31.92
[2], 283.15 K, x2 = 0.9076 | 1013.82 | – | –
[2], 283.15 K, x2 = 0.9528 | 1029.04 | – | –
[2], 283.15 K, x2 = 0.9642 | – | – | 33.79
[2], 298.15 K, x2 = 0.0488 | 751.07 | – | –
[2], 298.15 K, x2 = 0.0615 | – | – | 22.37
[2], 298.15 K, x2 = 0.0945 | 762.02 | – | –
[2], 298.15 K, x2 = 0.121 | – | – | 22.56
[2], 298.15 K, x2 = 0.1818 | 783.72 | – | –
[2], 298.15 K, x2 = 0.1824 | – | – | 22.74
[2], 298.15 K, x2 = 0.2656 | – | – | 23.01
[2], 298.15 K, x2 = 0.2983 | 814.38 | – | –
[2], 298.15 K, x2 = 0.3959 | 841.12 | – | –
[2], 298.15 K, x2 = 0.4058 | – | – | 23.66
[2], 298.15 K, x2 = 0.4962 | 869.6 | – | –
[2], 298.15 K, x2 = 0.5313 | – | – | 24.56
[2], 298.15 K, x2 = 0.6067 | 902 | – | –
[2], 298.15 K, x2 = 0.6376 | – | – | 25.57
[2], 298.15 K, x2 = 0.7034 | 931.45 | – | –
[2], 298.15 K, x2 = 0.7264 | – | – | 26.68
[2], 298.15 K, x2 = 0.806 | – | – | 27.93
[2], 298.15 K, x2 = 0.811 | 965.2 | – | –
[2], 298.15 K, x2 = 0.902 | – | – | 30.03
[2], 298.15 K, x2 = 0.9025 | 995.13 | – | –
[2], 298.15 K, x2 = 0.9506 | 1011.12 | – | –
[2], 298.15 K, x2 = 0.9642 | – | – | 31.9
[2], 313.15 K, x2 = 0.0449 | 734.98 | – | –
[2], 313.15 K, x2 = 0.0615 | – | – | 20.14
[2], 313.15 K, x2 = 0.094 | 746.73 | – | –
[2], 313.15 K, x2 = 0.121 | – | – | 20.45
[2], 313.15 K, x2 = 0.1824 | – | – | 20.77
[2], 313.15 K, x2 = 0.195 | 771.73 | – | –
[2], 313.15 K, x2 = 0.2656 | – | – | 21.15
[2], 313.15 K, x2 = 0.2962 | 798.13 | – | –
[2], 313.15 K, x2 = 0.3969 | 825.52 | – | –
[2], 313.15 K, x2 = 0.4058 | – | – | 21.83
[2], 313.15 K, x2 = 0.4983 | 854.12 | – | –
[2], 313.15 K, x2 = 0.5313 | – | – | 22.62
[2], 313.15 K, x2 = 0.5994 | 883.66 | – | –
[2], 313.15 K, x2 = 0.6376 | – | – | 23.59
[2], 313.15 K, x2 = 0.6987 | 913.64 | – | –
[2], 313.15 K, x2 = 0.7264 | – | – | 24.72
[2], 313.15 K, x2 = 0.8026 | 946.08 | – | –
[2], 313.15 K, x2 = 0.806 | – | – | 26.05
[2], 313.15 K, x2 = 0.902 | – | – | 28.24
[2], 313.15 K, x2 = 0.9066 | 979.72 | – | –
[2], 313.15 K, x2 = 0.9482 | 993.49 | – | –
[2], 313.15 K, x2 = 0.9642 | – | – | 30.03
